Data taken from patent US9725442B2, “Heterocyclic derivative having PGD2 receptor antagonist activity” (Shionogi & Co., Ltd., priority 2011, dated 2017).
Read-outs that look alike come from different tables or passages of the source.

What was measured:
DP receptor = DP receptor (Homo sapiens (Human), UniProt Q13258); test: DP inhibitory activity in human platelets (PGD2-induced cAMP increase in platelet rich plasma, HTRF); type: cell-based; conditions: IC50 of PGD2 (300 nM)-induced cAMP increase, read-out: PRP
Chain of DP receptor (Q13258 whole entry): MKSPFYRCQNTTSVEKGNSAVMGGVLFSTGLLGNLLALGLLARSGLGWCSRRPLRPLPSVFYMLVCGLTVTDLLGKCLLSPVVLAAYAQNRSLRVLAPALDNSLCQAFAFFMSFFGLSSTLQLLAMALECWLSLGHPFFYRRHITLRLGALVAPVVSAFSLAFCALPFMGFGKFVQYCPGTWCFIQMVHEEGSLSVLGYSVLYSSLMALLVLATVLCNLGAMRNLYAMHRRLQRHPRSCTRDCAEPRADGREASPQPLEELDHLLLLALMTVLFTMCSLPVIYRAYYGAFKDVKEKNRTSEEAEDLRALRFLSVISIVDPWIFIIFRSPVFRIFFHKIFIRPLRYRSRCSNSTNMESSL
Experimental: Thirty milliliter of blood was drown from healthy human into a syringe preloaded with 1/9 volume of 3.8% citrate sodium. The blood was centrifuged with 180 g for 10 min at room temperature and the upper plasma layer was collected as platelet rich plasma (PRP). The PRP was transferred to plate and treated with 3-isobutyl-1-methylxanthin (IBMX; […]) for 5 min. Then the compounds of the present invention were added to the plate and after 10 min, 300 nM of PGD2 was added. The reaction was stopped with 1 mmol/l hydrogenchlolide after 2 min of PGD2 addition, and platelet was lysed by adding 12% Triton X-100. The concentration of cAMP in the supernatant of the platelet lysate was quantified using homogenous time resolved fluorescence (HTRF). Inhibition ratio was defined by cAMP increase with and without compound, and […] for each compound was calculated from inhibitory curve.

Human DP1 receptor = Human DP1 receptor (Homo sapiens (Human), UniProt Q13258); test: Human DP1 inhibitory activity in DP1-expressing cell (PGD2-induced cAMP); type: cell-based
Chain of Human DP1 receptor (Q13258 whole entry): as above
Experimental: Compounds were categorized as AA (cAMP is less than 100 nM) and A (cAMP is more than 100 nM and less than 5000 nM) as shown in Table 99 and 100.

CRTH2 [1] = target: T1, CRTH2 (Homo sapiens (Human), UniProt Q9Y5Y4); test: CRTH2 receptor binding inhibitory activity ([3H]-PGD2 displacement, membranes of CRTH2-expressing K562 cell); conditions: [3H]-PGD2 displacement, membrane of CRTH2-expressing K562 cell, read-out: Ki
T1 sequence (Q9Y5Y4 whole entry): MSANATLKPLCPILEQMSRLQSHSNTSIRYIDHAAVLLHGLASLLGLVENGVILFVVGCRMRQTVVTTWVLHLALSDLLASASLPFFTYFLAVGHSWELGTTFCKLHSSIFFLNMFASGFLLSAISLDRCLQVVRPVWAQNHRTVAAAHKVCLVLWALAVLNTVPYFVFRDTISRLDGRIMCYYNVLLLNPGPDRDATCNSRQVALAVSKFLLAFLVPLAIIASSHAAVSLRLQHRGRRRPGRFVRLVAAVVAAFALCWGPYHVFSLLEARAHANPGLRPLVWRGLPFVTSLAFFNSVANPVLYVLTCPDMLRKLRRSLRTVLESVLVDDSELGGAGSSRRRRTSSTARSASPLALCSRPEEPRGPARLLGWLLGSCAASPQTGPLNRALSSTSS
Method in brief: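 Incubation ran 60 min at room temperature using 20 μg/well membrane from CRTH2-expressing K562 cells in pH 7.4 Tris/HCl (50 mM) with 10 mM MgCl2.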

CRTH2 [2] = target: T1, CRTH2; test: CRTH2 inhibitory activity in CRTH2-expressing cells (PGD2-induced intracellular calcium increase, K562); type: cell-based; conditions: 200 nM PGD2, read-out: IC50, inhibition of intracellular calcium concentration increase induced by PGD2
Experimental: CRTH2 inhibitory activities of compounds were determined as inhibition activity of intra-cellular calcium concentration increase induced by PGD2 in CRTH2-expressing cells.
CRTH2-expressing K562 cells were suspended at concentration of 2×10^6 cells/ml in buffer (10 mM HEPES, pH 7.4, 0.1% Bovine serum albumin). Cells were incubated with […] (4 μM) for 30 min at room temperature. Cells were washed, resuspended and mixed with various concentration of compounds of the present invention. After 2 min, cells were treated with 200 nM of PGD2. Then intracellular calcium concentration was measured using intracellular ion analyzer (FDSS3000). Inhibition ratio was defined by comparing intracellular calcium concentration increase with and without compound, and IC50 for each compound was calculated from inhibitory curve.

[3] = IC50 of PGD2 (60 nM)-induced cAMP increase, human DP1 receptor expressing Jurkut cell
[4] = category of cAMP IC50, human DP1 receptor expressing Jurkut cell
[5] = CRTH2 receptor binding, categorized AAAA/AAA

CC(C)Oc1ccc(S(=O)(=O)N2C[C@H](n3nc(CC(=O)O)c4ccc(F)cc43)C[C@@H]2Cn2cccn2)cc1 [Compound I-21]
IC50 (DP receptor): 180 nM
IC50 (Human DP1 receptor; [3]): 59 nM
IC50 (Human DP1 receptor; [4]): < 100 nM
Ki (CRTH2 [1]; [5]): < 100 nM
Ki (CRTH2 [1]): 10 nM

CCOc1ccc(S(=O)(=O)N2C[C@@H](C)[C@@H](n3nc(C(C)C(=O)O)c4ccccc43)C2)cc1 (stereo partly shown) [Compound I-284]
IC50 (DP receptor): 130 nM
IC50 (Human DP1 receptor; [3]): 50 nM
IC50 (Human DP1 receptor; [4]): < 100 nM
Ki (CRTH2 [1]; [5]): < 100 nM
Ki (CRTH2 [1]): 55 nM

CC(C)Oc1ccc(S(=O)(=O)N2C[C@@H](C)[C@@H](n3nc(CC(=O)O)c4ccc(C(F)(F)F)cc43)C2)cn1 [Compound I-131]
IC50 (CRTH2 [2]): 210 nM
IC50 (DP receptor): 190 nM
IC50 (Human DP1 receptor; [3]): 31 nM
IC50 (Human DP1 receptor; [4]): < 100 nM
Ki (CRTH2 [1]; [5]): < 100 nM
Ki (CRTH2 [1]): 7.4 nM

CCOc1ccc(S(=O)(=O)N2C[C@H](n3nc(CC(=O)O)c4ccccc43)CC23COC3)cc1 [Compound I-353]
IC50 (DP receptor): 37 nM
IC50 (Human DP1 receptor; [3]): 120 nM
IC50 (Human DP1 receptor; [4]): 100 to 5000 nM
Ki (CRTH2 [1]; [5]): 100 to 5000 nM
Ki (CRTH2 [1]): 400 nM

CCOc1ccc(S(=O)(=O)N2C[C@@H](C)[C@@H](n3nc(CC(=O)O)c4ccccc43)C2)c(-c2ccccc2)c1 [Compound I-187]
IC50 (Human DP1 receptor; [4]): 100 to 5000 nM
Ki (CRTH2 [1]; [5]): < 100 nM

Cc1noc([C@H]2C[C@@H](n3nc(CC(=O)O)c4ccc(F)cc43)CN2S(=O)(=O)c2ccc(OC(C)C)cc2)n1 [Compound I-364]
IC50 (Human DP1 receptor; [4]): 100 to 5000 nM
Ki (CRTH2 [1]; [5]): 100 to 5000 nM

COc1ccc(S(=O)(=O)N2C[C@@H](C)[C@@H](n3nc(CC(=O)O)c4ccc(Cl)cc43)C2)cc1 [Compound I-140]
IC50 (Human DP1 receptor; [4]): < 100 nM
Ki (CRTH2 [1]; [5]): < 100 nM

CC(C)Oc1ccc(S(=O)(=O)N2C[C@H](n3nc(CC(=O)O)c4ccc(F)cc43)C[C@@H]2CO)cc1 [Compound I-11]
IC50 (Human DP1 receptor; [3]): 99 nM
IC50 (Human DP1 receptor; [4]): < 100 nM
Ki (CRTH2 [1]; [5]): 100 to 5000 nM

CC(C)Oc1ccc(S(=O)(=O)N2C[C@H](n3nc(CC(=O)O)c4ccc(F)cc43)C[C@@H]2COCCCO)cc1 [Compound I-342]
IC50 (Human DP1 receptor; [4]): 100 to 5000 nM
Ki (CRTH2 [1]; [5]): 100 to 5000 nM

CSC[C@H]1C[C@@H](n2nc(CC(=O)O)c3ccc(F)cc32)CN1S(=O)(=O)c1ccc(OC(C)C)cc1 [Compound I-354]
IC50 (Human DP1 receptor; [4]): < 100 nM
Ki (CRTH2 [1]; [5]): 100 to 5000 nM

CCOc1ccc(S(=O)(=O)N2C[C@@H](C)[C@@H](n3nc(C(C)(O)C(=O)O)c4ccccc43)C2)cc1 (stereo partly shown) [Compound I-283]
IC50 (Human DP1 receptor; [4]): < 100 nM
Ki (CRTH2 [1]; [5]): 100 to 5000 nM

Cc1ccc2c(c1)c(CC(=O)O)nn2[C@H]1CN(S(=O)(=O)c2ccc(OCF)cc2)C[C@H]1C [Compound I-268]
IC50 (Human DP1 receptor; [4]): < 100 nM
Ki (CRTH2 [1]; [5]): < 100 nM

CCOc1ccc(S(=O)(=O)N2C[C@@H](C)[C@@H](n3nc(C(O)C(=O)O)c4ccccc43)C2)cc1 (single isomer, unassigned) [Compound I-307]
IC50 (Human DP1 receptor; [4]): 100 to 5000 nM
Ki (CRTH2 [1]; [5]): 100 to 5000 nM

CCOc1ccc(S(=O)(=O)N2C[C@@H](C)[C@@H](n3nc(CC(=O)O)c4cc(Cl)ccc43)C2)cn1 [Compound I-162]
IC50 (Human DP1 receptor; [4]): < 100 nM
Ki (CRTH2 [1]; [5]): 100 to 5000 nM

CC(C)Oc1ccc(S(=O)(=O)N2C[C@@H](C)[C@H](n3nc(CC(=O)O)c4cc(Br)c(F)cc43)C2)cc1 [Compound I-156]
IC50 (DP receptor): 110 nM
IC50 (Human DP1 receptor; [3]): 3 nM
IC50 (Human DP1 receptor; [4]): < 100 nM
Ki (CRTH2 [1]; [5]): 100 to 5000 nM
